Key:
[1] = target: T1, FXR (Homo sapiens, UniProt Q96RI1); test: In Vitro FXR Assay (TK): TK-ECRE-luc reporter in transfected CV-1 cells; assay type: cell-based; conditions: CV-1 cells transfected with hFXR, hRXR, 18 h incubation, luminescence
T1 construct: expressed in transfected cells; host or cells: CV-1 cells
T1 sequence (Q96RI1 1-486): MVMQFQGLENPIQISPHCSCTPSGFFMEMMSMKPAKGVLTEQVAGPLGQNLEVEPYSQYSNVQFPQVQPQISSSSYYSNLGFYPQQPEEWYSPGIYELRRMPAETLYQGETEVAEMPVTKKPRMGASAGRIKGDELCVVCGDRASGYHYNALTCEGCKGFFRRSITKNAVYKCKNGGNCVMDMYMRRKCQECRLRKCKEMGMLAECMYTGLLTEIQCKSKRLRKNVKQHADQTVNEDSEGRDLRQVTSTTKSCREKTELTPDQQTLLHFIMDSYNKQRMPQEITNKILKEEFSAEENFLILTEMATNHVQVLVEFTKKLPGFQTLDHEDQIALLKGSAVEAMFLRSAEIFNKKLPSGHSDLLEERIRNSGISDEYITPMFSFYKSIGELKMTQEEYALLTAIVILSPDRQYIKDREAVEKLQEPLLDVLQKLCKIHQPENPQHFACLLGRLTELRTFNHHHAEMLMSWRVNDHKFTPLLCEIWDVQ
T1 sequence (P19793 1-462 partner): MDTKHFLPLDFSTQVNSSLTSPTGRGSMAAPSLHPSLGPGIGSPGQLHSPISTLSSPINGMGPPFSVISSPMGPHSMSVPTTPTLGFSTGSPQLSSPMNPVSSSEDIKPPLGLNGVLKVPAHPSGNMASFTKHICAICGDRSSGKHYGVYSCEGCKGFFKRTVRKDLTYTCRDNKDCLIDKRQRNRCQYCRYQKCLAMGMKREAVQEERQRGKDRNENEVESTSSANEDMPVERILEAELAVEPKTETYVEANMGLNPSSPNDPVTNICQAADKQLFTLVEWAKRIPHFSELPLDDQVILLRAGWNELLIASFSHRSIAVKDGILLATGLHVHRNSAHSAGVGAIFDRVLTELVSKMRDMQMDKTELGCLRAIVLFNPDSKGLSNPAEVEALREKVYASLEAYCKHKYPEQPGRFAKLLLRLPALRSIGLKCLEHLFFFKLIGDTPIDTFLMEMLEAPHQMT
Method in brief: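 Luciferase read-out from lysed CV-1 cells exposed 18 h to DMSO-diluted compounds. Cells had been transfected overnight with expression plasmids for hFXR and hRXR plus TK-ECRE-luc reporter and pCMX-YFP, grown in charcoal-stripped serum at 37 °C, 5% CO2.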

[2] = target: T1, FXR; test: In Vitro FXR Assay (PGL3): luciferase reporter in transfected CV-1 cells; assay type: cell-based; conditions: CV-1 cells transfected with hFXR, hRXR, PGL3-ECRE*6-luc; 18 h incubation; luminescence
Method in brief: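 CV-1 cells in charcoal-stripped FBS were transiently co-transfected with full-length human FXR, RXR, an ECRE×6-luciferase reporter, β-gal and YFP plasmids. Transfected cells were reseeded onto half-log compound dilutions and incubated 18 h. Luciferase luminescence was read after lysis, and EC50 was determined.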

| SMILES | EC50 [1] | Cmpd/Fex (ratio of the EC50 for the test compound relative to the EC50 of the Fexaramine control) [2] |
| --- | --- | --- |
| COC(=O)/C=C/c1cccc(N(Cc2ccc(-c3ccccc3O)cc2)C(=O)C2CCCCC2)c1 [compound 56, (E)-Methyl 3-(3-(N-((2′-hydroxy-[1,1′-biphenyl]-4-yl)methyl)cyclohexanecarboxamido)phenyl) acrylate] | 1000 to 10000 nM | ++ (‘++’ means Cmpd/Fex > 10 & < 100) |
| COC(=O)/C=C/c1cccc(N(Cc2ccc(-c3ccc(O)cc3)cc2)C(=O)C2CCCCC2)c1 [compound 57, (E)-Methyl 3-(3-(N-((4′-hydroxy-[1,1′-biphenyl]-4-yl)methyl)cyclohexanecarboxamido)phenyl) acrylate] | > 10000 nM | + (‘+’ means Cmpd/Fex > 100) |
| COC(=O)/C=C/c1cccc(N(Cc2ccc(-c3ccc(C)c(OC)c3)cc2)C(=O)C2CCCCC2)c1 [compound 58, (E)-Methyl 3-(3-(N-((3′-methoxy-4′-methyl-[1,1′-biphenyl]-4-yl)methyl)cyclohexanecarboxamido)phenyl) acrylate] | 1000 to 10000 nM | +++ (‘+++’ means Cmpd/Fex < 10) |
| COC(=O)/C=C/c1cccc(N(Cc2ccc(-c3c(F)cccc3F)cc2)C(=O)C2CCCCC2)c1 [compound 59, (E)-Methyl 3-(3-(N-((2′,6′-difluoro-[1,1′-biphenyl]-4-yl)methyl)cyclohexanecarboxamido)phenyl) acrylate] | 1000 to 10000 nM | + (‘+’ means Cmpd/Fex > 100) |
| COC(=O)/C=C/c1cccc(N(Cc2ccc(-c3ccc(N(C)C(=O)OC(C)(C)C)cc3)cc2)C(=O)C2CCCCC2)c1 [compound 60, (E)-Methyl 3-(3-(N-((4′-((tert-butoxycarbonyl)(methyl)amino)-[1,1′-biphenyl]-4-yl)methyl)cyclohexanecarboxamido)phenyl) acrylate] | > 10000 nM | + (‘+’ means Cmpd/Fex > 100) |
| CNc1ccc(-c2ccc(CN(C(=O)C3CCCCC3)c3cccc(/C=C/C(=O)OC)c3)cc2)cc1 [compound 61, (E)-Methyl 3-(3-(N-((4′-(methylamino)-[1,1′-biphenyl]-4-yl)methyl)cyclohexanecarboxamido)phenyl) acrylate] | 1000 to 10000 nM | +++ (‘+++’ means Cmpd/Fex < 10) |
| COC(=O)/C=C/c1cccc(N(Cc2ccc(-c3ccc4c(ccn4C)c3)cc2)C(=O)C2CCCCC2)c1 [compound 62, (E)-Methyl 3-(3-(N-(4-(1-methyl-1H-indol-5-yl)benzyl)cyclohexanecarboxamido)phenyl) acrylate] | ≤ 1000 nM | +++ (‘+++’ means Cmpd/Fex < 10) |
| COC(=O)/C(C)=C/c1cccc(N(Cc2ccc(-c3ccc(N(C)C)cc3)cc2)C(=O)C2CCCCC2)c1 [compound 63, (E)-Methyl 3-(3-(N-((4′-(dimethylamino)-[1,1′-biphenyl]-4-yl)methyl)cyclohexanecarboxamido)phenyl)-2-methylacrylate] | 1000 to 10000 nM | +++ (‘+++’ means Cmpd/Fex < 10) |
| COC(=O)/C=C/c1cccc(N(Cc2ccc(-c3ccc(OC)c(C#N)c3)cc2)C(=O)C2CCCCC2)c1 [compound 64, (E)-Methyl 3-(3-(N-((3′-cyano-4′-methoxy-[1,1′-biphenyl]-4-yl)methyl)cyclohexanecarboxamido)phenyl) acrylate] | ≤ 1000 nM | +++ (‘+++’ means Cmpd/Fex < 10) |
| COC(=O)/C=C/c1cccc(N(Cc2ccc(-c3ccccn3)cc2)C(=O)C2CCCCC2)c1 [compound 65, (E)-Methyl 3-(3-(N-(4-(pyridin-2-yl)benzyl)cyclohexanecarboxamido)phenyl) acrylate] | 1000 to 10000 nM | + (‘+’ means Cmpd/Fex > 100) |
| COC(=O)/C=C/c1cccc(N(Cc2ccc(-c3ccccc3C#N)cc2)C(=O)C2CCCCC2)c1 [compound 66, (E)-Methyl 3-(3-(N-((2′-cyano-[1,1′-biphenyl]-4-yl)methyl)cyclohexanecarboxamido)phenyl) acrylate] | 1000 to 10000 nM | + (‘+’ means Cmpd/Fex > 100) |
| COC(=O)/C=C/c1cccc(N(Cc2ccc(-c3nccs3)cc2)C(=O)C2CCCCC2)c1 [compound 67, (E)-Methyl 3-(3-(N-(4-(thiazol-2-yl)benzyl)cyclohexanecarboxamido)phenyl) acrylate] | 1000 to 10000 nM | + (‘+’ means Cmpd/Fex > 100) |
| COC(=O)/C=C/c1cccc(N(Cc2ccc(-c3cscn3)cc2)C(=O)C2CCCCC2)c1 [compound 68, (E)-Methyl 3-(3-(N-(4-(thiazol-4-yl)benzyl)cyclohexanecarboxamido)phenyl) acrylate] | 1000 to 10000 nM | + (‘+’ means Cmpd/Fex > 100) |
| COC(=O)/C=C/c1cccc(N(Cc2ccc(-c3cncs3)cc2)C(=O)C2CCCCC2)c1 [compound 69, (E)-Methyl 3-(3-(N-(4-(thiazol-5-yl)benzyl)cyclohexanecarboxamido)phenyl) acrylate] | 1000 to 10000 nM | + (‘+’ means Cmpd/Fex > 100) |
| COC(=O)/C=C/c1cccc(N(Cc2ccc(-c3ccc(C(C)C)cc3)cc2)C(=O)C2CCCCC2)c1 [compound 70, (E)-Methyl 3-(3-(N-((4′-isopropyl-[1,1′-biphenyl]-4-yl)methyl)cyclohexanecarboxamido)phenyl) acrylate] | 1000 to 10000 nM | +++ (‘+++’ means Cmpd/Fex < 10) |
| C=C(C)c1ccc(-c2ccc(CN(C(=O)C3CCCCC3)c3cccc(/C=C/C(=O)OC)c3)cc2)cc1 [compound 71, (E)-Methyl 3-(3-(N-((4′-(prop-1-en-2-yl)-[1,1′-biphenyl]-4-yl)methyl)cyclohexanecarboxamido)phenyl) acrylate] | 1000 to 10000 nM | +++ (‘+++’ means Cmpd/Fex < 10) |
| COC(=O)/C=C/c1cccc(N(Cc2ccc(-c3ccc(N(C)C)c(C#N)c3)cc2)C(=O)C2CCCCC2)c1 [compound 72, (E)-Methyl 3-(3-(N-((3′-cyano-4′-(dimethylamino)-[1,1′-biphenyl]-4-yl)methyl)cyclohexanecarboxamido)phenyl) acrylate] | ≤ 1000 nM | +++ (‘+++’ means Cmpd/Fex < 10) |
| COC(=O)/C=C/c1cccc(N(Cc2ccc(-c3ccc(N(C)C)c(F)c3)cc2)C(=O)C2CCCCC2)c1 [compound 73, (E)-Methyl 3-(3-(N-((4′-(dimethylamino)-3′-fluoro-[1,1′-biphenyl]-4-yl)methyl)cyclohexanecarboxamido)phenyl) acrylate] | ≤ 1000 nM | +++ (‘+++’ means Cmpd/Fex < 10) |
| COC(=O)/C=C/c1cccc(N(Cc2ccc(-c3ccc4c(c3)ncn4C)cc2)C(=O)C2CCCCC2)c1 [compound 74, (E)-Methyl 3-(3-(N-(4-(1-methyl-1H-benzo[d]imidazol-5-yl)benzyl)cyclohexanecarboxamido)phenyl) acrylate] | 1000 to 10000 nM | + (‘+’ means Cmpd/Fex > 100) |
| COC(=O)/C=C/c1cccc(N(Cc2ccc(-c3ccc(N(C)C)c(OC)c3)cc2)C(=O)C2CCCCC2)c1 [compound 75, (E)-methyl 3-(3-(N-((4′-(dimethylamino)-3′-methoxy-[1,1′-biphenyl]-4-yl)methyl)cyclohexanecarboxamido)phenyl) acrylate] | 1000 to 10000 nM | ++ (‘++’ means Cmpd/Fex > 10 & < 100) |
| COC(=O)/C=C/c1cccc(N(Cc2ccc(N3CCOCC3)cc2)C(=O)C2CCCCC2)c1 [compound 77, (E)-Methyl 3-(3-(N-(4-morpholinobenzyl)cyclohexane-carboxamido)phenyl)acrylate] | 1000 to 10000 nM | + (‘+’ means Cmpd/Fex > 100) |

From patent US10626081B2, “Farnesoid X receptor agonists and uses thereof” (Metacrine, Inc., priority 2015, dated 2020)
